Laboratory results taken from PubChem BioAssay (NCI).
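Test compounds were applied to cells in 96-well plates for 48 hours at 5 doses. GI50 is the concentration that inhibits growth by half. TGI: total growth inhibition.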

What was measured:
Experiment in all cases: growth of human tumour cells (NCI), 48 h
A498 renal = test system: A498 renal
M14 melanoma = test system: M14 melanoma
TK-10 renal = test system: TK-10 renal
A549 NSCLC = test system: A549 NSCLC
HCT-116 colon = test system: HCT-116 colon
NCI-H460 lung = test system: NCI-H460 lung
NCI/ADR-RES ovarian = test system: NCI/ADR-RES ovarian
SR leukemia = test system: SR leukemia
U251 CNS = test system: U251 CNS
HOP-62 NSCLC = test system: HOP-62 NSCLC
UACC-62 melanoma = test system: UACC-62 melanoma
MDA-MB-435 = test system: MDA-MB-435
SK-MEL-5 melanoma = test system: SK-MEL-5 melanoma
NCI-H522 lung = test system: NCI-H522 lung
SN12C renal = test system: SN12C renal
RXF 393 renal = test system: RXF 393 renal
SK-OV-3 ovarian = test system: SK-OV-3 ovarian
HT29 colon = test system: HT29 colon
HS 578T breast = test system: HS 578T breast
SF-268 CNS = test system: SF-268 CNS
SW-620 colon = test system: SW-620 colon
OVCAR-3 ovarian = test system: OVCAR-3 ovarian
HCC-2998 colon = test system: HCC-2998 colon
MALME-3M melanoma = test system: MALME-3M melanoma
HCT-15 colon = test system: HCT-15 colon
SNB-19 CNS = test system: SNB-19 CNS
HL-60(TB) leukemia = test system: HL-60(TB) leukemia
CAKI-1 renal = test system: CAKI-1 renal
SF-295 CNS = test system: SF-295 CNS
786-0 renal = test system: 786-0 renal
LOX IMVI melanoma = test system: LOX IMVI melanoma
MOLT-4 leukemia = test system: MOLT-4 leukemia
OVCAR-4 ovarian = test system: OVCAR-4 ovarian
MDA-MB-231 breast = test system: MDA-MB-231 breast
CCRF-CEM leukemia = test system: CCRF-CEM leukemia
UO-31 renal = test system: UO-31 renal
UACC-257 melanoma = test system: UACC-257 melanoma
HOP-92 NSCLC = test system: HOP-92 NSCLC
SNB-75 CNS = test system: SNB-75 CNS
DU-145 prostate = test system: DU-145 prostate
COLO 205 colon = test system: COLO 205 colon
RPMI-8226 leukemia = test system: RPMI-8226 leukemia
SK-MEL-2 melanoma = test system: SK-MEL-2 melanoma
EKVX NSCLC = test system: EKVX NSCLC
BT-549 breast = test system: BT-549 breast
PC-3 prostate = test system: PC-3 prostate
NCI-H23 lung = test system: NCI-H23 lung
K-562 leukemia = test system: K-562 leukemia
MCF7 breast = test system: MCF7 breast
SF-539 CNS = test system: SF-539 CNS
OVCAR-8 ovarian = test system: OVCAR-8 ovarian

NC(=NCCCC1(c2ccccc2)CCCC1)Nc1ccc(Cl)cc1
GI50 (A498 renal): 1.75 µM
TGI (A498 renal): 3.29 µM
GI50 (M14 melanoma): 1.59 µM
TGI (M14 melanoma): 3.27 µM
GI50 (TK-10 renal): 1.38 µM
TGI (TK-10 renal): 2.75 µM
GI50 (A549 NSCLC): 1.89 µM
TGI (A549 NSCLC): 3.61 µM
GI50 (HCT-116 colon): 1.44 µM
TGI (HCT-116 colon): 2.86 µM
GI50 (NCI-H460 lung): 1.69 µM
TGI (NCI-H460 lung): 3.42 µM
GI50 (NCI/ADR-RES ovarian): 1.77 µM
TGI (NCI/ADR-RES ovarian): 3.34 µM
GI50 (SR leukemia): 1.71 µM
TGI (SR leukemia): 4.24 µM
GI50 (U251 CNS): 1.69 µM
TGI (U251 CNS): 3.11 µM
GI50 (HOP-62 NSCLC): 1.69 µM
TGI (HOP-62 NSCLC): 3.36 µM
GI50 (UACC-62 melanoma): 1.68 µM
TGI (UACC-62 melanoma): 3.2 µM
GI50 (MDA-MB-435): 1.77 µM
TGI (MDA-MB-435): 3.21 µM
GI50 (SK-MEL-5 melanoma): 1.58 µM
TGI (SK-MEL-5 melanoma): 2.93 µM
GI50 (NCI-H522 lung): 1.68 µM
TGI (NCI-H522 lung): 3.32 µM
GI50 (SN12C renal): 1.77 µM
TGI (SN12C renal): 3.37 µM
GI50 (RXF 393 renal): 1.47 µM
TGI (RXF 393 renal): 2.88 µM
GI50 (SK-OV-3 ovarian): 2.43 µM
TGI (SK-OV-3 ovarian): 5.59 µM
GI50 (HT29 colon): 1.72 µM
TGI (HT29 colon): 3.17 µM
GI50 (HS 578T breast): 2.19 µM
TGI (HS 578T breast): 5.03 µM
GI50 (SF-268 CNS): 1.66 µM
TGI (SF-268 CNS): 3.35 µM
GI50 (SW-620 colon): 1.85 µM
TGI (SW-620 colon): 3.85 µM
GI50 (OVCAR-3 ovarian): 1.82 µM
TGI (OVCAR-3 ovarian): 3.35 µM
GI50 (HCC-2998 colon): 1.66 µM
TGI (HCC-2998 colon): 3.08 µM
GI50 (MALME-3M melanoma): 1.69 µM
TGI (MALME-3M melanoma): 3.66 µM
GI50 (HCT-15 colon): 1.75 µM
TGI (HCT-15 colon): 3.29 µM
GI50 (SNB-19 CNS): 1.81 µM
TGI (SNB-19 CNS): 3.98 µM
GI50 (HL-60(TB) leukemia): 1.73 µM
TGI (HL-60(TB) leukemia): 3.67 µM
GI50 (CAKI-1 renal): 1.93 µM
TGI (CAKI-1 renal): 3.94 µM
GI50 (SF-295 CNS): 1.62 µM
TGI (SF-295 CNS): 3.06 µM
GI50 (786-0 renal): 1.68 µM
TGI (786-0 renal): 3.13 µM
GI50 (LOX IMVI melanoma): 1.58 µM
TGI (LOX IMVI melanoma): 2.93 µM
GI50 (MOLT-4 leukemia): 1.58 µM
TGI (MOLT-4 leukemia): 4.11 µM
GI50 (OVCAR-4 ovarian): 1.68 µM
TGI (OVCAR-4 ovarian): 3.17 µM
GI50 (MDA-MB-231 breast): 1.6 µM
TGI (MDA-MB-231 breast): 3.14 µM
GI50 (CCRF-CEM leukemia): 2.18 µM
TGI (CCRF-CEM leukemia): 6.29 µM
GI50 (UO-31 renal): 1.5 µM
TGI (UO-31 renal): 3 µM
GI50 (UACC-257 melanoma): 1.82 µM
TGI (UACC-257 melanoma): 3.56 µM
GI50 (HOP-92 NSCLC): 1.36 µM
TGI (HOP-92 NSCLC): 2.85 µM
GI50 (SNB-75 CNS): 1.07 µM
TGI (SNB-75 CNS): 2.31 µM
GI50 (DU-145 prostate): 1.8 µM
TGI (DU-145 prostate): 3.29 µM
GI50 (COLO 205 colon): 1.69 µM
TGI (COLO 205 colon): 3.44 µM
GI50 (RPMI-8226 leukemia): 1.89 µM
TGI (RPMI-8226 leukemia): 4.08 µM
GI50 (SK-MEL-2 melanoma): 1.95 µM
TGI (SK-MEL-2 melanoma): 3.52 µM
GI50 (EKVX NSCLC): 1.87 µM
TGI (EKVX NSCLC): 3.57 µM
GI50 (BT-549 breast): 1.74 µM
TGI (BT-549 breast): 3.27 µM
GI50 (PC-3 prostate): 1.6 µM
TGI (PC-3 prostate): 3.12 µM
GI50 (NCI-H23 lung): 1.69 µM
TGI (NCI-H23 lung): 3.35 µM
GI50 (K-562 leukemia): 1.55 µM
TGI (K-562 leukemia): 4.45 µM
GI50 (MCF7 breast): 1.65 µM
TGI (MCF7 breast): 3.19 µM
GI50 (SF-539 CNS): 1.75 µM
TGI (SF-539 CNS): 3.23 µM
GI50 (OVCAR-8 ovarian): 1.9 µM
TGI (OVCAR-8 ovarian): 3.8 µM
